According to EP0446604A2, “Pyridine and related aza heterocycle derivatives as cardiovascular agents” (AMERICAN CYANAMID COMPANY, priority 1990, dated 1991):
Counter-ions that a name gives are not always drawn.

Experiments:
[1] = target: T1, thromboxane synthetase enzyme (Rattus norvegicus, UniProt P49430); test: Inhibition of thromboxane (TXB2) formation in washed rat platelets, TXB2 radioimmunoassay; type: biochemical, Okamoto-Aoki spontaneously hypertensive rats (SHR); conditions: Concentration 1x10^-4M, platelet suspension incubated 10 minutes at 37 °C
T1 construct: from tissue; host or cells: washed blood platelets from Okamoto-Aoki spontaneously hypertensive rats (SHR)
T1 sequence (P49430 1-533): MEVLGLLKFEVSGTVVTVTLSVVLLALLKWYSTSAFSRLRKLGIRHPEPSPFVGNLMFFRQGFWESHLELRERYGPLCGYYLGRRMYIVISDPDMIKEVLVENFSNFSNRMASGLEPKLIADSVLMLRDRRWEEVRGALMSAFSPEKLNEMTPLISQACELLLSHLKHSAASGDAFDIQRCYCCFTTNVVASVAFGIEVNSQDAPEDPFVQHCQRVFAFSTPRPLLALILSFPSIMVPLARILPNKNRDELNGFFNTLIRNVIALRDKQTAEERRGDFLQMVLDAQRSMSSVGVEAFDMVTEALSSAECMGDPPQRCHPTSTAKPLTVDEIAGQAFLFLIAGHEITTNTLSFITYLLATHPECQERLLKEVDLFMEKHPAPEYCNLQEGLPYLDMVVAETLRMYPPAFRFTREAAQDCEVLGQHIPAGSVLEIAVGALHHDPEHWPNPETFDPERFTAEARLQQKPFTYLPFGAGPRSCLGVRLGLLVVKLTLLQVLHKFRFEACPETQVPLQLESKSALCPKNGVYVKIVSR
Method: Under urethan anesthesia, […] of arterial blood from Okamoto-Aoki spontaneously hypertensive rats (SHR) (Taconic Farms, Germantown, NY) between 19 and 24 weeks in age is collected in one ml of 3.2% sodium citrate in a polystyrene tube. The blood is diluted with 3 ml of cold saline and centrifuged at room temperature for 15 minutes at 460xg. The platelet rich plasma (PRP) is separated. The platelets are isolated by centrifuging the PRP for 10 minutes at 1060xg and are washed in 4 ml of cold oxygenated Krebs phosphate buffer, pH 7.4. The chilled platelets, recovered from centrifuging at 800xg for 10 minutes, are resuspended in oxygenated Krebs phosphate buffer and diluted to contain 4.5-6.0 x 10⁴ platelets/µ1. The inhibition of thromboxane (TX) formation is studied by determining the concentration of thromboxane B₂ (TXB₂), the stable hydrolysis product of TXA₂. Assay samples, prepared on ice, contain 200 µ1 platelet suspension, 50 µ1 saline, and 50 µ1 vehicle (saline) or drug under study. The samples are incubated for 10 minutes at 37 °C in a metabolic shaker. The reaction is terminated by immersing the tubes in an ice bath and adding 50 µl of 0.5M citric acid. The samples are centrifuged for 10 minutes in a refrigerated centrifuge and the supernatants thus obtained are decanted and stored at -20 °C. The TXB₂ content for each sample is determined by a direct radioimmunoassay (RIA) utilizing a TXB₂ specific RIA kit purchased from New England Nuclear, Boston, MA and expressed as pg TXB₂ formed per minute per sample, from which the percent inhibition of TXB₂ formation is calculated.

[2] = tested on: Male mice of the Swiss Webster Strain; test: Potassium chloride-induced arrhythmia in anesthetized mice (survival); type: in vivo; conditions: Mus musculus, iv, Dose = 10 mg/kg i.v.; potassium chloride 62.5 mg/kg i.v. bolus 5, 15 or 30 minutes after drug; observed 15 minutes; read-out: KCl #Mice Surviving #Mice Tested (converted)
Description: (§1) Intravenous administration of high doses of calcium or potassium chloride in animals produces cardiac arrhythmias, cardiac fibrillation and cardiac arrest. Any agent that can prevent these events is considered an antiarrhythmic/antifibrillatory agent. (Meth. and Find Exptl. Clin Pharmacol.2:223-252(1980); Pharmacol, Ther. 24:401-433 (1984); Experimental Cardiac and Antiarrhythmic Drugs, L. Szekeres and Gy. J. Dapp, Akademiai Kiado Preso, Budapest, 9-448 (1971).)
(§2) The method employed is as follows: Male mice of the Swiss Webster Strain (Charles River, Wilmington, MA) weighing 25-35 g are anesthetized with ethyl carbamate (urethan) (1.5g/kg body weight i.p.). A 25-gauge needle attached to PE-20 tubing is inserted into a caudal vein for drug administration. The lead II ECG is recorded by needle electrodes placed subcutaneously in the limbs. All data is collected on a Gould Brush recorder. Animals are observed 5 minutes before drug administration. A 5, 15, or 30 minute period following drug administration is allowed before the bolus injection of calcium chloride, 200 mg/kg i.v. or potassium chloride, 62.5 mg/kg i.v. Control mice receive 4 ml/kg of 0.9% sodium chloride i.v. Mice are observed an additional 15 minutes for arrhythmias, fibrillation, survival or death. Any compound at a dose of less than 20 mg/kg i.v. that protects 3 out of 6 mice from cardiac death in either the potassium or calcium chloride test, is considered active.

[3] = tested on: Male mice of the Swiss Webster Strain; test: Calcium chloride-induced arrhythmia in anesthetized mice (survival); type: in vivo; conditions: Mus musculus, iv, Dose = 10 mg/kg i.v.; calcium chloride 200 mg/kg i.v. bolus 5, 15 or 30 minutes after drug; observed 15 minutes; read-out: CaCl2 #Mice Surviving #Mice Tested (converted)
Description: as §1, §2

Row | SMILES | inhibition at 100 µM [1] [%] | responders at 10 mg/kg [2] [%] | responders at 10 mg/kg [3] [%]
1 | c1cncc(CCCCNc2nccc3ccccc23)c1 [Example 105, N-[4-(3-Pyridinyl)butyl]-1-isoquinolinamine, dihydrochloride] | 97 | 66.7 | 50
2 | c1ccc(-c2cc(NCCCCc3cccnc3)nc3ccccc23)cc1 [Example 110, 4-Phenyl-N-[4-(3-pyridinyl)butyl]-2-quinolinamine] | 99 |  | 
3 | Cc1ccc(C#N)c(NCCc2ccncc2)n1 [Example 97, 6-Methyl-2-[[2-(4-pyridinyl)ethyl]amino]-3-pyridinecarbonitrile, dihydrochloride] |  | 50 | 0
4 | Cc1nccc2nc(NCCCn3ccnc3)ccc12 [Example 40, N-[3-(1H-Imidazol-1-yl)propyl]-5-methyl-1,6-naphthyridin-2-amine,(E)-2-butenedioate (2:3)] | 95 | 50 | 33.3
5 | Cc1ccc(C#N)c(NCCC(C)n2ccnc2)n1 (stereo not drawn) [Example 85, 2-[[3-(1H-Imidazol-1-yl)butyl]amino]-6-methyl-3-pyridinecarbonitrile, dihydrochloride] |  | 83.3 | 33.3
6 | Cc1cc(NCCCn2ccnc2)nc2nc(N)ccc12 [Example 34, N²-[3-(1H-Imidazol-1-yl)propyl]-4-methyl-1,8-naphthyridine-2,7-diamine] | 98 | 66.7 | 50
7 | CC(=O)N(CCCn1ccnc1)c1ccc([N+](=O)[O-])cn1 [Example 58, N-[3-(1H-Imidazol-1-yl)propyl]-N-(5-nitro-2-pyridinyl)acetamide] | 83 |  | 
8 | Cc1cc(NCCc2cccnc2)nc2ccccc12 [Example 95, 4-Methyl-N-[2-(3-pyridinyl)ethyl]-2-quinolinamine,dihydrochloride] |  | 66.7 | 16.7
9 | Cc1cccc(NCCCn2ccnc2)n1 [Example 10, N-[3-(1H-Imidazol-1-yl)propyl]-6-methyl-2-pyridinamine,(E)-2-butenedioate (2:3)] |  | 50 | 0
10 | Cc1ccc2ccc(NCCCn3ccnc3)nc2n1 [Example 38, N-[3-(1H-Imidazol-1-yl)propyl]-7-methyl-1,8-naphthyridin-2-amine,(E)-2-butenedioate (1:2)] | 98 | 66.7 | 33.3
11 | Cc1ccc(C#N)c(NCCCCc2cccnc2)n1 [Example 108, 6-Methyl-2-[[4-(3-pyridinyl)butyl]amino]-3-pyridinecarbonitrile] | 96 | 83.3 | 66.7
12 | c1ccc(-c2cc(NCCCn3ccnc3)nc3ccccc23)cc1 [Example 44, N-[3-(1H-Imidazol-1-yl)propyl]-4-phenyl-2-quinolinamine] | 100 |  | 
13 | Cc1ccc(C#N)c(NCC(C)Cn2ccnc2)n1 (stereo not drawn) [Example 84, 2-[[3-(1H-Imidazol-1-yl)-2-methylpropyl]amino] 6-methyl-3-pyridinecarbonitrile, dihydrochloride] |  | 83.3 | 50
14 | c1ccc(-n2nc3ccc(NCCCn4ccnc4)nc3n2)cc1 [Example 56, N-[3-(1H-Imidazol-1-yl)propyl]-2-phenyl-2H-1,2,3-triazolo[4,5-b]pyridin-5-amine] | 95 |  | 
15 | NC(=O)c1ccc(NCCCn2ccnc2)nc1 [Example 46, 6-[[3-(1H-Imidazol-1-yl)propyl]amino]-3-pyridinecarboxamide] | 80 |  | 

Second part, led by results:

Row | inhibition at 100 µM [1] [%] | SMILES | responders at 10 mg/kg [2] [%] | responders at 10 mg/kg [3] [%]
16 | 97 | Cc1cc(C)c2ccc(NCCCCc3cccnc3)nc2n1 [Example 109, 5,7-Dimethyl-N-[4-(3-pyridinyl)butyl]-1,8-naphthyridin-2-amine,(E)-2-butenedioate (1:2)] |  | 
17 | 85 | N#Cc1ccc(-c2ccncc2)nc1NCCCn1ccnc1 [Example 52, 2-[[3-(1H-Imidazol-1-yl)propyl]amino]-6-(4-pyridinyl)-3-pyridinecarbonitrile] |  | 
18 | 88 | O=[N+]([O-])c1cccnc1NCCCCc1ccncc1 [compound 100] |  | 
19 | 85 | Cc1cccc2c(-c3ccccc3)cc(NCCCCc3cccnc3)nc12 [Example 111, 8-Methyl-4-phenyl-N-[4-(3-pyridinyl)butyl]-2-quinolinamine] |  | 
20 | 98 | CC(CCNc1nc2ccccc2c2ccccc12)n1ccnc1 (stereo not drawn) [Example 89, N-[3-(1H-Imidazol-1-yl)butyl]-6-phenanthridinamine] |  | 
21 | 98 | N#Cc1ccc(-c2cccc(C(F)(F)F)c2)nc1NCCCn1ccnc1 [Example 18, 2-[[3-(1H-Imidazol-1-yl)propyl]amino]-6-[3-(trifluoromethyl)phenyl]-3-pyridinecarbonitrile] |  | 
22 | 86 | Cc1ccc(C#N)c(NCc2ccncc2)n1 [Example 93, 6-Methyl-2-[(4-pyridinylmethyl)amino]-3-pyridinecarbonitrile] |  | 
23 | 81 | Cc1ccc(C#N)c(NCc2cccnc2)n1 [Example 91, 6-Methyl-2-[(3-pyridinylmethyl)amino]-3-pyridinecarbonitrile] |  | 
24 | 89 | Cc1cccc2c(-c3ccccc3)cc(NCCCn3ccnc3)nc12 [Example 51, N-[3-(1H-Imidazol-1-yl)propyl]-8-methyl-4-phenyl-2-quinolinamine] |  | 
25 | 94 | O=[N+]([O-])c1ccc(Cl)nc1NCCCn1ccnc1 [Example 57, 6-Chloro-N-[3-(1H-imidazol-1-yl)propyl]-3-nitro-2-pyridinamine, monohydrochloride] |  | 
26 | 91 | Clc1cccc(NCCCn2ccnc2)n1 [Example 47, 6-Chloro-N-[3-(1H-imidazol-1-yl)propyl]-2-pyridinamine] |  | 
27 | 90 | CC(=O)N(CCCn1ccnc1)c1cc(C)c2ccccc2n1 [Example 83, N-[3-(1H-Imidazol-1-yl)propyl]-N-(4-methyl-2-quinolinyl)acetamide,monoacetate] |  | 
28 | 92 | N#Cc1ccc(NCCCn2ccnc2)nc1 [Example 45, 6-[[3-(1H-Imidazol-1-yl)propyl]amino]-3-pyridinecarbonitrile] |  | 
29 | 90 | c1cnc2nc(NCCCn3ccnc3)ccc2c1 [Example 27, N-[3-(1H-Imidazol-1-yl)propyl]-1,8-naphthyridin-2-amine,(E)-2-butenedioate (1:2)] |  | 
30 | 100 | N#Cc1ccc(NCCCn2ccnc2)nc1-c1cccc(C(F)(F)F)c1 [Example 71, 6-[[3-(1H-Imidazol-1-yl)propyl]amino]-2-[3-(trifluoromethyl)phenyl]-3-pyridinecarbonitrile, (E)-2-butenedioate (1:1)] |  | 
